Measurements published in patent US20180066064A1, “BIOTHERAPEUTICS TARGETING GPR158 FOR CANCER” (University of Southern California, priority 2015, published 2018).

Key:
[1] = system: GPR158, AR and PSA expression in PHPECs; details: DHT 10 nM
Protocol: (§1) FIG. 2: Effects of an androgen on GPR158 expression. […] Total RNA (FIG. 2A-FIG. 2C) or cell lysates (FIG. 2E-FIG. 2G) were isolated and subjected to qRT-PCR and western blotting, respectively to estimate AR, PSA, GPR158 and beta-actin expression. […] Total RNA or the whole cell lysates were isolated and qRT-PCR and western blotting was performed, respectively to detect GPR158, AR, PSA and beta-actin levels (FIG. 2D) The mRNA level of the above indicated genes was considered 1 in cells grown in 10% FCS for calculating the relative fold difference of these genes in other experimental conditions. (FIG. 2A-FIG. 2H) The data represent three independent experiments.
(§2) For androgen starvation studies, LNCaP, PC-3, and DU145 cells were grown in 10% CSS.
(§3) Total RNA isolated from PCa cell lines with Aurum total RNA mini kit (Bio-Rad, Hercules, Calif.) was subjected to qRT-PCR analysis using iScript one-step RT-PCR kit with SYBR Green (Bio-Rad) on CFX96 Touch Real-Time PCR Detection System (Bio-Rad), according to the manufacturer's instructions. Relative quantification values of genes of interest were calculated as 2^−ΔΔCt by the comparative Ct method, where ΔΔCt=(Ct target mRNA of treated sample-Ct reference gene of treated sample)-(Ct target mRNA of control sample-Ct reference gene of control sample). The Inventors used beta-actin or GAPDH as a reference gene.
(§4) The whole cell lysates were prepared using radioimmunoprecipitation assay (RIPA) lysis buffer (50 mM Tris, 150 mM NaCl, 0.1% SDS, 0.5% Sodium Deoxycholate, 1% NP-40) spiked with a cocktail of protease inhibitors for 20 min, followed by centrifugation at 10,000 g for 10 min. Supernatants were collected and proteins in the extracts were separated by SDS-PAGE without boiling the samples and transferred to PVDF membranes. Membranes were probed with primary antibody against protein of interest and were developed by chemiluminescence with reagents Luminol enhancer solution and peroxide solution (GE Healthcare UK limited, Buckinghamshire, UK) and images were captured with Fujifilm imaging system (LAS-4000; Fujifilm, Tokyo, Japan). Protein loading was monitored by stripping and reprobing of the membrane with beta-actin antibody.

[2] = system: GPR158, AR and PSA expression in LNCaP cells; details: DHT 10 nM
Protocol: as §1, §2, §3, §4

[3] = system: GPR158, AR and PSA expression in C4-2B cells; details: DHT 10 nM
Protocol: as §1, §2, §3, §4

lenti-GPR158 LNCaP cells = test: Cell counting of lenti-GPR158 LNCaP cells after Dox treatment; format: cell-based, human; details: Dox 100 ng/mL
[4] = system: GPR158 driven by a doxycycline inducible promoter; AR, PSA; test: Dox induction in lenti-GPR158 LNCaP cells (western blotting); format: cell-based, human

SMILES	PSA mRNA and protein levels ([1]; PHPEC)	AR protein stabilization ([1]; PHPEC, 12 hrs)	increase of GPR158 mRNA and protein levels ([1]; PHPECs, 24 hrs, 10% CSS)	increase of GPR158 mRNA and protein levels ([2]; LNCaP cells, 24 hrs, 10% CSS)	PSA mRNA and protein levels ([2]; LNCaP)	AR protein stabilization ([2]; LNCaP, 12 hrs)	effect on GPR158 mRNA and protein levels ([3]; C4-2B cells, 10% CSS)	AR protein stabilization ([3]; C4-2B)	PSA mRNA and protein levels ([3]; C4-2B)	increase in cell numbers (lenti-GPR158 LNCaP cells; 3 days, normalized for Dox alone on parental cells) [fold]	increase in cell numbers (growth curve) (lenti-GPR158 LNCaP cells; at 4, 6 and 8 days vs untreated)	induction of GPR158 protein ([4]; Dox 100 ng/mL, at 4, 6 and 8 days (data not shown)) [fold]	increase in GPR158 protein levels ([4]; Dox 500 ng/mL, 3 days) [fold]
C[C@]12CCC(=O)C[C@@H]1CC[C@@H]1[C@@H]2CC[C@]2(C)[C@@H](O)CC[C@@H]12 [DHT, dihydrotestosterone]	increased significantly	AR protein stabilization	3-4 fold	3-4 fold	increased significantly	AR protein stabilization	no effect	not in C4-2B cells	increased significantly	–	–	–	–
C[C@H]1c2cccc(O)c2C(=O)C2=C(O)[C@]3(O)C(=O)C(C(N)=O)=C(O)[C@@H](N(C)C)[C@@H]3[C@@H](O)[C@@H]21 [Dox, doxycycline]	–	–	–	–	–	–	–	–	–	2.25	approximately 2 fold	3	~6
